Assay results: US20070148159A1, “Use of crotoxin as an analgesic - CIP” (priority 2005, published 2007)
Where a name gives a salt, the structure may show the parent alone.

Tests used:
[1] = tested on: mice; type: in vivo, mouse; conditions: for inhibition of the activity of Crotoxin: summary statement on antagonist studies
[2] = type: in vivo; conditions: hot-plate model; test end point 180 minutes
[3] = cited from earlier work

## CN1[C@@H]2CC[C@H]1C[C@@H](OC(=O)C(CO)c1ccccc1)C2 (stereo partly shown) [Atropine]
[1]
  inhibition of the activity of Crotoxin: failed to inhibit

## CCOC(=O)C1(c2ccccc2)CCN(C)CC1 [Dolantin, Meperidine hydrochloride]
[2]
  time of maximal effect on hot-plate response: 30 min
[3]; halved again when given orally rather than parenterally
  analgesic potency relative to morphine: one-tenth as potent an analgesic as morphine
[3]; in vivo
  duration of activity: 2 to 4 h
  onset of activity: 10 to 45 min

## C=CCN1CC[C@]23c4c5ccc(O)c4O[C@H]2C(=O)CC[C@@]3(O)[C@H]1C5 [Naloxone]
[1]; Atropine 0.25-1 mg/kg, Naloxone 1.25-5 mg/kg
  effect on Crotoxin-induced analgesia, hotplate test: no effect
[1]
  inhibition of the activity of Crotoxin: failed to inhibit
